PMC10587159, “Biosynthesis and engineering of the nonribosomal peptides with a C-terminal putrescine” (Nature Communications, 2023)
Non-standard residues stand in square brackets, D forms with d. Residues, ends and D or L forms follow the SMILES beside them. *: point of attachment. Lauroyl = CCCCCCCCCCCC(=O)*; NH(CH2)4NH2 = NCCCCN*

Columns and labels:
[1] = test system: human lung adenocarcinoma cell A549; assay: MTT cytotoxicity assay, A549; type: cell-based; details: 24 h
Method in brief: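 Cytotoxicity in Kasumi, HepG-2, SGC-7901 and normal lung epithelial 2B cells, among other human tumour lines, was measured by MTT assay.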

tumor lines = assay: MTT cytotoxicity assay, statements on the whole panel; type: cell-based, human; details: MTT assay, panel of tumor cell lines
Method in brief: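 An MTT-based assay, run as in prior work, gives compound cytotoxicity here. The tested lines undergo routine authentication through morphology and gene/protein expression checks.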

native host DSM 7029 = assay: Inhibition zone test on the native host DSM 7029; type: cell-based, Schlegelella brevitalea DSM 7029; details: same method as for the seven tested strains
Excerpt: The two human acute lymphoblastic leukemia cells K562 and Kasumi, two human breast adenocarcinoma cells MCF7 and MDA-MB-231, human hepatoma cell HepG-2, human lung adenocarcinoma cell A549, human gastric cancer cell SGC-7901, human colon cancer cell HCT-116, human ovarian cancer cell line SKOV3, or human lung epithelial normal cell 2B were obtained from Beyotime Biotechnology and utilized to test the cytotoxicity of compounds by MTT assays as previous study. The anti-inflammatory effect of the compounds was detected by the influence on the increase in the level of nitric oxide caused by lipopolysaccharide (LPS) based on the classic Griess method. RAW 264.7 cells (Shanghai Institutes for Biological Science) were seeded in 96-well plates and incubated for 24 h. Then, cells were treated with compounds 29, 29a, 31, and 31a (0-80 μM) for 30 min, followed by co-treatment with LPS ([…]) for another 24 h. The Nitric Oxide assay kit with Griess reagents (Beyotime, Lot: S0021, Shanghai, China) was used to examine cellular supernatant nitrite accumulation, which represents cellular NO levels. The OD value of 540 nm absorbance was detected with a microplate reader. Their authentication in the laboratory was performed regularly based on morphology and gene/protein expression. […]

[2] = test system: S. brevitalea DSM 7029 wild type; assay: Biofilm formation of DSM 7029 wild type with compounds (crystal violet); type: cell-based, Schlegelella brevitalea DSM 7029
Method in brief: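 CYMG medium inoculated 1:100 from overnight culture with compounds at 0.1 μg/μL; OD600 read hourly for 42 h with shaking. Biofilm quantified at 18 h and 36 h by 0.1% crystal violet staining, 95% ethanol elution, OD600. Pigment secretion measured as OD600 of cell-free supernatant.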

HepG2 cells [3] = assay: Extracellular and intracellular compound in HepG2 cells (LC-MS); type: in vitro ADME, human; details: 3 h
Protocol: (§1) Comparing the concentration of compounds (7, 10, 10a) in extracellular and intracellular after the HepG2 cell line dealt with compounds. HepG2 cells were plated in six-well plates at a density of 1.5 × 10^5 cells/well and grew overnight. After cell treated with compounds (5 μg/mL) for 3 h, the compounds were extracted with MeOH for cells culture medium and cells separately as followed the reported method. The compounds were quantified by LC‒MS (5%‒95% ACN in 15 min). The cell numbers of HepG2 with the compounds treatments was determined. […]
(§2) To determine whether the difference in bioactivity of products (with or without Put moiety) is due to variations in cellular uptake, we treated hepatoma cell line HepG2 with compounds 7 (C12 acyl), 10 (C14 acyl), and 10a (C14 acyl and without Put) (Supplementary Fig. 33c). The cells were treated for 3 h, and then culture medium and cells were extracted separately. LC-MS was used to detect and quantify the compounds.
(§3) At lower concentrations (5000 ng/mL, and 10,000 ng in total for each group), and […]
(§4) may be contributing to the differences in antitumor activity (Supplementary Fig. 33b).
(§5) This could be due to differences in the speed of cellu lar uptake or differences in drug metabolism rate, requiring further experimental investigation.

HepG2 cells [4] = assay: Cell numbers of HepG2 after compound treatment; type: cell-based, human; details: HepG2, 1.5 × 10^5 cells/well plated, compound 5 μg/mL, 3 h; mean of n = 3
Protocol: as §1, §2, §3, §4, §5

[5] = relative to wild type treated with H2O = 100%, crystal violet 0.1%, OD600, mean of n = 3

## CCCCCCCCCCCC(=O)N[C@H](CCSC)C(=O)N[C@H](CC(N)=O)C(=O)N1CCC[C@H]1C(=O)N[C@H](C(=O)N[C@H](Cc1ccccc1)C(=O)N1CCC[C@H]1C(=O)N[C@@H](Cc1c[nH]c2ccccc12)C(=O)N[C@@H](C(=O)N[C@@H](C)C(=O)N[C@H](C)C(=O)N[C@@H](CO)C(=O)N[C@@H](C)C(=O)NCCCCN)C(C)C)C(C)C [Compound 7, Glidonin G] (Lauroyl-[dM][dN]PV[dF]PW[dV]A[dA]SA-{NH(CH2)4NH2})
[1]
  IC50: 7.64 ± 1.11 µM
Tumor lines
  cytotoxic / antitumor activity in words: broad-spectrum cytotoxicity
Native host DSM 7029
  inhibition of native host DSM 7029, inhibition zone method: no inhibition
[2]; crystal violet staining
  effect on biofilm formation of DSM 7029 wild type in words: increased biofilm formation
[2]; [5]
  biofilm formation 18 h, Average: 152.732%
  biofilm formation 36 h, Average: 138.926%
HepG2 cells [3]; HepG2, 5000 ng/mL, compared to 10a
  total quantities (intracellular plus extracellular) in words: lower total quantities
HepG2 cells [3]; HepG2, six-well plates, 5 μg/mL (10,000 ng in total), cells extracted with MeOH, mean of n = 3
  Intracellular compound, Average: 13.4894 ng
HepG2 cells [3]; HepG2, six-well plates, 5 μg/mL (10,000 ng in total), culture medium extracted with MeOH, mean of n = 3
  Extracellular compound, Average: 2764.81 ng
HepG2 cells [4]
  The cell numbers, Average: 1323333
